Data taken from ChEMBL document CHEMBL1268958, “Synthesis and antihyperlipidemic activity of novel coumarin bisindole derivatives” (2010).

How the values were obtained:
Type in all cases: functional, Mesocricetus auratus
[1] = test system: Syrian golden hamster; experiment: Antihyperlipidemic activity against high fat diet fed gloden syrian hamster assessed as change in triglyceride level at 10 mg/kg, po for 7 days
[2] = test system: Syrian golden hamster; experiment: Antihyperlipidemic activity against high fat diet fed gloden syrian hamster assessed as change in total cholesterol level at 10 mg/kg, po for 7 days
[3] = test system: Syrian golden hamster; experiment: Antihyperlipidemic activity against high fat diet fed gloden syrian hamster assessed as change in HDL level at 10 mg/kg, po for 7 days
[4] = test system: Syrian golden hamster; experiment: Antihyperlipidemic activity against high fat diet fed gloden syrian hamster assessed as change in HDL to total cholesterol ratio at 10 mg/kg, po for 7 days
[5] = test system: Syrian golden hamster; experiment: Antihyperlipidemic activity against high fat diet fed gloden syrian hamster assessed as change in triglyceride level at 25 mg/kg, po for 7 days
[6] = test system: Syrian golden hamster; experiment: Antihyperlipidemic activity against high fat diet fed gloden syrian hamster assessed as change in total cholesterol level at 25 mg/kg, po for 7 days
[7] = test system: Syrian golden hamster; experiment: Antihyperlipidemic activity against high fat diet fed gloden syrian hamster assessed as change in HDL level at 25 mg/kg, po for 7 days
[8] = test system: Syrian golden hamster; experiment: Antihyperlipidemic activity against high fat diet fed gloden syrian hamster assessed as change in HDL to total cholesterol ratio at 25 mg/kg, po for 7 days

| Compound | Activity [1] | Activity [2] | Activity [3] | Activity [4] | Activity [5] | Activity [6] | Activity [7] | Activity [8] |
| --- | --- | --- | --- | --- | --- | --- | --- | --- |
| COC(=O)c1cc2cc(C(c3c(C)n(C)c4ccccc34)c3c(C)n(C)c4ccccc34)c3ccccc3c2oc1=O | -29% | -4% | -3% | 2% |  |  |  |  |
| CCOC(=O)c1cc2cc(C(c3cn(C)c4ccccc34)c3cn(C)c4ccccc34)c3ccccc3c2oc1=O | -33% | 3% | 22% | 18% |  |  |  |  |
| CCOC(=O)c1cc2cc(C(c3c(C)[nH]c4ccccc34)c3c(C)[nH]c4ccccc34)c3ccccc3c2oc1=O | -35% | -7% | 14% | 24% |  |  |  |  |
| CCOC(=O)c1cc2cc(C(c3c(C)n(C)c4ccccc34)c3c(C)n(C)c4ccccc34)c3ccccc3c2oc1=O | -45% | -38% | -31% | 11% |  |  |  |  |
| CCOC(=O)c1cc2cc(C(c3c(C)n(C)c4ccccc34)c3c(C)n(C)c4ccccc34)cc(C(C)CC)c2oc1=O (stereo unspecified) | -57% | -43% | -20% | 39% |  |  |  |  |
| COC(=O)c1cc2cc(C(c3c[nH]c4ccccc34)c3c[nH]c4ccccc34)c3ccccc3c2oc1=O | -50% | -12% | 13% | 30% |  |  |  |  |
| COC(=O)c1cc2cc(C(c3cn(C)c4ccccc34)c3cn(C)c4ccccc34)c3ccccc3c2oc1=O | -35% | 6% | -17% | 12% |  |  |  |  |
| COC(=O)c1cc2cc(C(c3c(C)[nH]c4ccccc34)c3c(C)[nH]c4ccccc34)c3ccccc3c2oc1=O | -33% | -17% | 1% | 24% |  |  |  |  |
| CCOC(=O)c1cc2cc(C(c3c[nH]c4ccccc34)c3c[nH]c4ccccc34)c3ccccc3c2oc1=O | -55% | -20% | 14% | 42% |  |  |  |  |
| CCOC(=O)c1cc2cc(C(c3c[nH]c4ccccc34)c3c[nH]c4ccccc34)cc(C(C)CC)c2oc1=O (stereo unspecified) | -10% | 28% | 11% | -14% |  |  |  |  |
| CCOC(=O)c1cc2cc(C(c3cn(C)c4ccccc34)c3cn(C)c4ccccc34)cc(C(C)CC)c2oc1=O (stereo unspecified) | -43% | -36% | -24% | 18% |  |  |  |  |
| CCOC(=O)c1cc2cc(C(c3c(C)[nH]c4ccccc34)c3c(C)[nH]c4ccccc34)cc(C(C)CC)c2oc1=O (stereo unspecified) | -39% | -21% | -13% | 9% |  |  |  |  |
| CC(C)c1c(C(=O)Nc2ccccc2)c(-c2ccccc2)c(-c2ccc(F)cc2)n1CC[C@@H](O)C[C@@H](O)CC(=O)O [ATORVASTATIN] | -63% | -14% | 15% | 35% |  |  |  |  |
| CC[C@H](C)C(=O)O[C@H]1C[C@@H](C)C=C2C=C[C@H](C)[C@H](CC[C@@H]3C[C@@H](O)CC(=O)O3)[C@H]21 [LOVASTATIN] |  |  |  |  | -29% | -9% | 3% | 12% |
